# In US11292811B2, “Long-acting prodrugs of entecavir, preparing methods and uses thereof” (priority 2017, dated 2022):
# Experiments:
# [1] = Pharmacokinetic test in the body of beagle (blood concentration of Entecavir after i.m. injection of prodrug suspension); assay type: in vivo
# Procedure: Three conventional male beagles were used in the test, and they were forbidden to eat for 12 hours before administering drugs, and drank water freely meanwhile. Entecavir-5′-docosanoate (prepared in Example 4), Entecavir-5′-ursodesoxycholate (prepared in Example 5) and entecavir-5′-stearoylamidobutanoate (prepared in Example 19) were used to prepare a suspension, and were intramuscularly injected in a dosage of 0.508 mg/kg, 0.552 mg/kg, and 0.533 mg/kg respectively.
# Treatment of blood plasma sample: 100 μL of blood plasma sample was added to 20 μL of methanol-water (V:V, 1:1) and 20 μL of interior label (2 μg/mL apigenin), and mixed through vortex. 200 μL of methanol was added and mixed through vortex, followed by being centrifuged under a centrifugal force of 14,000 g for 30 minutes. 10 μL of supernate was collected for analysis. The results are shown in Table 1, Table 2, and Table 3, as well as FIG. 1, FIG. 2 and FIG. 3.
# [2] = cited from earlier work
compound,measurement,setting,value
C=C1[C@H](COC(=O)CCCNC(=O)CCCCCCCCCCCCCCCCC)[C@@H](O)C[C@@H]1n1cnc2c(=O)[nH]c(N)nc21 [Entecavir-5′-stearoylamidobutanoate],Release of injectable suspension after intramuscular injection,"[1]; dog, in vivo",released sustainably and steady
C=C1[C@H](COC(=O)CC[C@@H](C)[C@H]2CC[C@H]3[C@@H]4[C@@H](O)C[C@@H]5C[C@H](O)CC[C@]5(C)[C@H]4CC[C@]23C)[C@@H](O)C[C@@H]1n1cnc2c(=O)[nH]c(N)nc21 [Entecavir-5′-ursodesoxycholate],Release of injectable suspension after intramuscular injection,"[1]; beagle, intramuscularly injected suspension",released sustainably and steady
C=C1[C@H](CO)[C@@H](O)C[C@@H]1n1cnc2c(=O)[nH]c(N)nc21 [Entecavir],Cmax decrease when administered with food,[2],44-46%
same,Decrease of area under the curve (AUC) of the drug-time curve when administered with food,[2],18-20%
Entecavir-5′-docosanoate,Release of injectable suspension after intramuscular injection,"[1]; dog, in vivo",released sustainably and steady
